Reference: patent US12606540B2, “Triazolone compound” (MEDSHINE DISCOVERY INC., priority 2020, dated 2026)
Read-outs that look alike come from different tables or passages of the source. Each block holds one molecule with its values, some of them ahead of it.

Tests used:
DHODH enzyme = DHODH enzyme (Homo sapiens, UniProt Q02127); assay: DHODH enzyme inhibitory activity in vitro (resazurin fluorescence); assay type: biochemical; conditions: 5 nM DHODH, 15 μM L-DHO, 80 μM Resazurin
Text: The DHODH inhibitory activity of the compounds was detected by the following experimental method, and the experimental results are as shown in Table 1.
DHODH uses flavin mononucleotide FMN to catalyze the oxidation of dihydrooratic acid DHO to produce oratic acid, while the re-oxidation of FMN requires the participation of coenzyme CoQ. In the experiment of detecting the DHODH enzyme activity, CoQ was replaced by Resazurin dye as the final electron acceptor in the enzyme activity reaction. Resazurin solution is blue, and the resorufin generated after reduction has red fluorescence, and the fluorescence signal can be detected under the 535 nm of excitation wavelength and the 590 nm of emission wavelength. The components of the reaction buffer used in the experiment were 100 mM Hepes pH 7.0, 150 mM NaCl, 0.3% CHAPS, 0.5 mg/mL BSA, 0.1 μM FMN and 1% DMSO. The final concentration of DHODH enzyme in the reaction system was 5 nM, and the final concentration of substrate L-DHO was 15 μM, the final concentration of indicator Resazurin was 80 μM. The components of the reaction stop buffer were 100 mM Hepes pH 7.0 and 5 mM Orotate. The specific method was as follows: 2-fold final concentration of the DHODH enzyme solution was mixed with the compound, incubated at room temperature for 20 min, 2-fold final concentration of the substrate mixture solution of L-DHO and resazurin was added and reacted, incubated at room temperature away from light for 45 min. Then the reaction was stopped by adding 2-fold final concentration of the reaction stop buffer to the reaction system, and incubated at room temperature for 10 min, the fluorescence signal of the reaction system was detected with EnVision under the condition of Ex/Em=535/590 nm.

[1] = tested on: human peripheral blood mononuclear cells; assay: Proliferation inhibition of peripheral blood mononuclear cells (flow cytometry); assay type: cell-based; conditions: PBMC, PHA-M 5 μg/mL stimulation, 48 hours
Protocol: Flow cytometry was used to detect cell proliferation of human peripheral blood mononuclear cells.
• Cell complete medium: 445 mL of RPMI1640 cell culture+50 mL of fetal bovine serum+5 mL of double antibody • Buffer 1: 9.9 mL of phosphate buffer+0.1 mL of 10% bovine serum protein • Buffer 2: 10 mL of fetal bovine serum+490 mL of phosphate buffer 3.2 Cell Thawing • 3.2.1 20 mL of cell complete medium was added to a 50 mL of centrifuge tube and pre-heated in a 37° C. water bath for 5 minutes; • 3.2.2 the cell cryotubes were removed from the liquid nitrogen storage tank and placed on dry ice for 5-10 minutes to allow the liquid nitrogen to evaporate fully; • 3.2.3 the cell cryotubes were clamped with forceps and placed in the water bath, and shaken gently to thaw the frozen cells quickly; • 3.2.4 the thawed cells were transferred to the pre-heated cell complete medium with a pipette, centrifuged at 350 g for 5 min, then the supernatant was discarded, and the cells was resuspended by adding 10 mL of phosphate buffer; • 3.2.5 counting by cell counter, and cell viability and cell count were recorded. 3.3 Cell Labeling • 3.3.1 Cell proliferation labeling solution (CellTrace™ Violet, 1:1000 dilution) was prepared • 3.3.2 the above mixture was centrifuged at 350 g for 5 minutes, and the supernatant was discarded, then the cells (20×10^6/mL) were resuspended by adding Buffer 1, and the resuspended cells were gently blown by pipette, and an equal volume of cell proliferation labeling solution (prepared in 3.3.1) was added, and gently blown well by pipette; • 3.3.3 incubating in a 5% CO2, 37° C. cell incubator for 18 minutes; • 3.3.4 the 5-fold volume of cell complete medium was added and leaved at room temperature for 5 minutes to terminate the staining reaction; • 3.3.5 the above mixture was centrifuged at 350 g for 5 minutes, and the supernatant was discarded, then the cells were resuspended by adding 10 mL of cell complete medium, counted by cell counter, and cell viability and cell count were recorded; • 3.3.6 the above mixture was centrifuged at 350 g for 5 minutes, and the supernatant was discarded, then the corresponding volume of cell complete medium was added according to the cell counting results, and the density of the resuspended cells was 2×10^6/mL and was to be used. 3.4 Cell Proliferation Stimulation • 3.4.1 50 μL/well prepared cell suspension (1×10^5 cells/well), 50 μL of 4×PHA-M (the final concentration is 5 μg/mL), 50 μL of 4×test compound, 50 μL of cell complete medium were added to the wells of 96-well cell culture plate, and the corresponding control group was set up; (total volume of the reaction system is 200 μL) • 3.4.2 the cell culture plate was placed and incubated in a 5% CO2, 37° C. cell incubator for 48 hours. 3.5 Cell Proliferation Detection • 3.5.1 the above mixture was centrifuged at 350 g for 5 minutes and the supernatant was transferred to a new cell culture plate and stored at −80° C.; • 3.5.2 200 μL of Buffer 2 was add to the wells of the culture plate, and the above mixture was centrifuged at 350 g and the supernatant was discarded; • 3.5.3 cell dead or living staining solution (7-AAD, 1:100 dilution) was prepared with Buffer 2; • 3.5.4 100 μL/well of dead or living staining solution was added, and gently blown and mixed well by pipette, and stained at room temperature for 10 min; • 3.5.5 cell proliferation was detected by flow cytometry analyzer and analyzed by Flowjo software.

[2] = tested on: influenza virus A/Weiss/43 (H1N1); assay: Influenza virus cytopathic effect (CPE) experiment in MDCK cells; assay type: cell-based; conditions: unidentified influenza virus, H1N1, 120 h, 5 days incubation, CCK8
[3] = Pharmacokinetic evaluation in mice (IV and PO); assay type: in vivo, female Balb/c mice; conditions: for AUC(0-inf) / AUC(0-t) / clearance / half-life / MRT last / Vd / Tmax / C0 / Cmax: female, Balb/c, mouse, plasma; for MRT last: read-out: MRT0-last; for Vd: read-out: VdSS
Protocol: Experiment process: 0.04 mg/mL of a clarified solution of the test compound in 5% DMSO/10% Solutol solution/85% water was injected into female Balb/c mice (overnight fasting, 7-9 weeks of age) via tail vein, with dosage of 0.2 mg/kg. 0.1 mg/mL of the test compound in 5% DMSO/10% Solutol solution/0.2% Tween80/84.8% water was administered by gavage to female Balb/c mice (overnight fasting, 7-9 weeks of age), with dosage of 1 mg/kg. About 30 μL of blood was collected from the jugular vein at 0.0833, 0.25, 0.5, 1.0, 2.0, 4.0, 8.0, 10 and 24 h and from the tail vein at 0.25, 0.5, 1.0, 2.0, 4.0, 8.0 and 24 h after administration for both groups of animals, and were placed in anticoagulation tubes with EDTA-K2, and the blood was separated by centrifugation to obtain plasma. Plasma concentrations were detected by LC-MS/MS, and relevant pharmacokinetic parameters were calculated using WinNonlin™ Version 6.3 (Pharsight, Mountain View, CA) pharmacokinetic software with a non-compartmental model linear logarithmic trapezoid method.

MDR1 (P-glycoprotein) = assay: Permeability evaluation on MDR1-MDCK II cell line; conditions: dog, MDCK-MDR1, pH 7.4

Chain of DHODH enzyme (Q02127 whole entry): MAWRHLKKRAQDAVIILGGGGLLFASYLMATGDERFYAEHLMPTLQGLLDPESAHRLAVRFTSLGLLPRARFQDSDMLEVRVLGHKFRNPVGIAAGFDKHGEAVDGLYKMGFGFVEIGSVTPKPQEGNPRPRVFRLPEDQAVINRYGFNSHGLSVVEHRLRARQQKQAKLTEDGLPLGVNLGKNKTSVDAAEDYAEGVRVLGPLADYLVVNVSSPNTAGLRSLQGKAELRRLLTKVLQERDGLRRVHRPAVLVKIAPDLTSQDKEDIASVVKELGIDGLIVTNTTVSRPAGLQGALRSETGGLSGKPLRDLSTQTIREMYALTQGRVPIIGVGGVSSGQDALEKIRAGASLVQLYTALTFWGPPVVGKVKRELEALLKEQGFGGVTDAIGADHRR

SMILES: CCn1c(CO)nn(-c2nc(O[C@@H](C)C(F)(F)F)c(/C(F)=C/c3ncccc3Cl)cc2F)c1=O [Compound 25]
IC50 (DHODH enzyme): 6 nM
IC50 [1]: 2 nM

SMILES: CCn1c(CO)nn(-c2cc(O[C@@H](C)C(F)(F)F)c(/C(F)=C/c3cccnc3Cl)cc2F)c1=O [Compound 26]
IC50 (DHODH enzyme): 1.5 nM
EC50 [2]: 2.4 nM
IC50 [1]: 4.6 nM
Tlast ([3]; IV 0.2 mg/kg): 24 h
F ([3]; PO 1 mg/kg): 80.2%
AUC(0-inf) ([3]; IV 0.2 mg/kg): 2.86 µM·h
AUC(0-t) ([3]; IV 0.2 mg/kg): 2.29 µM·h
clearance ([3]; IV 0.2 mg/kg): 2.32 mL/min/kg
half-life ([3]; IV 0.2 mg/kg): 581 min
MRT last ([3]; IV 0.2 mg/kg): 8.04 h
Vd ([3]; IV 0.2 mg/kg): 1.93 L/kg
AUC(0-inf) ([3]; PO 1 mg/kg): 13 µM·h
AUC(0-t) ([3]; PO 1 mg/kg): 9.2 µM·h
Tmax ([3]; PO 1 mg/kg): 1 h
half-life ([3]; PO 1 mg/kg): 888 min
MRT last ([3]; PO 1 mg/kg): 8.9 h
C0 ([3]; IV 0.2 mg/kg): 451 nM
Cmax ([3]; PO 1 mg/kg): 872 nM
Papp A→B at 150 min, 2 μM (MDR1 (P-glycoprotein)): 8.59 ×10⁻⁶ cm/s
Papp B→A at 150 min, 2 μM (MDR1 (P-glycoprotein)): 7.76 ×10⁻⁶ cm/s
Papp at 150 min, 2 μM (MDR1 (P-glycoprotein)): > 5.5 ×10⁻⁶ cm/s
efflux ratio at 150 min, 2 μM (MDR1 (P-glycoprotein)): 0.9

SMILES: CCn1c(CO)nn(-c2cc(O[C@@H](C)C(F)(F)F)c(/C(F)=C/c3cccnc3C(F)F)cc2F)c1=O [Compound 39]
IC50 (DHODH enzyme): 1.3 nM
EC50 [2]: 42 nM
IC50 [1]: 14.4 nM
Tlast ([3]; IV 0.2 mg/kg): 24.0 h
F ([3]; PO 1 mg/kg): 97.4%
Tlast ([3]; PO 1 mg/kg): 24.0 h
AUC(0-inf) ([3]; IV 0.2 mg/kg): 2.24 µM·h
AUC(0-t) ([3]; IV 0.2 mg/kg): 1.84 µM·h
clearance ([3]; IV 0.2 mg/kg): 2.86 mL/min/kg
half-life ([3]; IV 0.2 mg/kg): 624 min
MRT last ([3]; IV 0.2 mg/kg): 7.83 h
Vd ([3]; IV 0.2 mg/kg): 2.31 L/kg
AUC(0-inf) ([3]; PO 1 mg/kg): 10.6 µM·h
AUC(0-t) ([3]; PO 1 mg/kg): 8.95 µM·h
Tmax ([3]; PO 1 mg/kg): 1.5 h
half-life ([3]; PO 1 mg/kg): 532 min
MRT last ([3]; PO 1 mg/kg): 8.67 h
C0 ([3]; IV 0.2 mg/kg): 419 nM
Cmax ([3]; PO 1 mg/kg): 787 nM
Papp A→B at 150 min, 2 μM (MDR1 (P-glycoprotein)): 10.1 ×10⁻⁶ cm/s
Papp B→A at 150 min, 2 μM (MDR1 (P-glycoprotein)): 13.9 ×10⁻⁶ cm/s
Papp at 150 min, 2 μM (MDR1 (P-glycoprotein)): > 5.5 ×10⁻⁶ cm/s
efflux ratio at 150 min, 2 μM (MDR1 (P-glycoprotein)): 1.37

SMILES: CCn1c(CO)nn(-c2nc(O[C@@H](C)C(F)(F)F)c(/C=C/c3c(F)cccc3Cl)cc2F)c1=O [Compound 36]
IC50 (DHODH enzyme): 1.5 nM
EC50 [2]: 10 nM
IC50 [1]: 5.9 nM

SMILES: CCn1c(CO)nn(-c2cc(O[C@@H](C)C(F)(F)F)c(/C=C/c3cccnc3OC)cc2F)c1=O [Compound 23]
IC50 (DHODH enzyme): 9 nM

More lines, now with the values ahead:

IC50 (DHODH enzyme): 3.9 nM
SMILES: CCn1c(CO)nn(-c2cc(O[C@@H](C)C(F)(F)F)c(/C(F)=C/c3cnccc3C(F)F)cc2F)c1=O [Compound 32]

IC50 (DHODH enzyme): 26.5 nM
SMILES: CCn1c(CO)nn(-c2cc(O[C@@H](C)C(F)(F)F)c(/C=C/c3cccnc3C(F)F)cc2F)c1=O [Compound 38]

IC50 (DHODH enzyme): 1.5 nM
SMILES: CCn1c(CO)nn(-c2cc(O[C@@H](C)C(F)(F)F)c(/C(F)=C/c3cnccc3C)cc2F)c1=O [Compound 27]

IC50 (DHODH enzyme): 31.8 nM
SMILES: CCn1c(CO)nn(-c2cc(O[C@@H](C)C(F)(F)F)c(/C=C/c3cccnc3Cl)cc2F)c1=O [Compound 37]

IC50 (DHODH enzyme): 4.7 nM
SMILES: CCn1c(CO)nn(-c2cc(O[C@@H](C)C(F)(F)F)c(/C(F)=C/c3cccc(NC(=O)C4CC4)c3)cc2F)c1=O [Compound 29]
